Test results published in the supplement of paper PMC9663587.

Legend:
[1] = compound: CCc1cnn2c(NCc3ccc[n+]([O-])c3)cc(N3CCCC[C@H]3CCO)nc12; test: GR value, 72 h; higher = faster growth (1 = untreated, <0 = killing);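 further: breast cancer and non-malignant breast epithelial lines, nine half-log doses, viable cells counted by Hoechst and LIVE/DEAD dye imaging versus time-zero plates and DMSO controls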
Neratinib/HKI272 = compound: CCOc1cc2ncc(C#N)c(Nc3ccc(OCc4ccccn4)c(Cl)c3)c2cc1NC(=O)/C=C/CN(C)C [Neratinib/HKI272]; test: as above
THZ531 = compound: CN(C)C/C=C/C(=O)Nc1ccc(C(=O)N2CCC[C@@H](Nc3ncc(Cl)c(-c4c[nH]c5ccccc45)n3)C2)cc1 [THZ531]; test: as above
BSJ-03-123 = compound: CC(=O)c1c(C)c2cnc(Nc3ccc(N4CCN(CCOCCOCCOCCNC(=O)COc5cccc6c5C(=O)N(C5CCC(=O)NC5=O)C6=O)CC4)cn3)nc2n(C2CCCC2)c1=O [BSJ-03-123]; test: as above
[2] = compound: CCN1CCN(Cc2ccc(Nc3ncc(F)c(-c4cc(F)c5nc(C)n(C(C)C)c5c4)n3)nc2)CC1; test: as above
Flavopiridol [3] = compound: T1, CN1CC[C@H](c2c(O)cc(O)c3c(=O)cc(-c4ccccc4Cl)oc23)[C@H](O)C1 [Flavopiridol]; test: as above
THZ1 = compound: CN(C)C/C=C/C(=O)Nc1ccc(C(=O)Nc2cccc(Nc3ncc(Cl)c(-c4c[nH]c5ccccc45)n3)c2)cc1 [THZ1]; test: as above
YKL-5-124 = compound: C=CC(=O)Nc1ccc(C(=O)Nc2[nH]nc3c2CN(C(=O)N[C@H](CN(C)C)c2ccccc2)C3(C)C)cc1 [YKL-5-124]; test: as above
[4] = compound: CC(=O)c1c(C)c2cnc(Nc3ccc(N4CCNCC4)cn3)nc2n(C2CCCC2)c1=O; test: as above
LEE011/Ribociclib = compound: CN(C)C(=O)c1cc2cnc(Nc3ccc(N4CCNCC4)cn3)nc2n1C1CCCC1 [LEE011/Ribociclib]; test: as above
[5] = compound: CO[C@@H](C)Cn1c(=O)n(C)c2cnc3ccc(-c4cncc(C(C)(C)O)c4)cc3c21
Taselisib/GDC0032 = compound: Cc1nc(-c2cn3c(n2)-c2ccc(-c4cnn(C(C)(C)C(N)=O)c4)cc2OCC3)n(C(C)C)n1 [Taselisib/GDC0032]
ABT-737 = compound: CN(C)CC[C@H](CSc1ccccc1)Nc1ccc(S(=O)(=O)NC(=O)c2ccc(N3CCN(Cc4ccccc4-c4ccc(Cl)cc4)CC3)cc2)cc1[N+](=O)[O-] [ABT-737]
Saracatinib/AZD0530 = compound: CN1CCN(CCOc2cc(OC3CCOCC3)c3c(Nc4c(Cl)ccc5c4OCO5)ncnc3c2)CC1 [Saracatinib/AZD0530]
Flavopiridol [6] = compound: T1, Flavopiridol
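Wherever GR50, 72 h is given: breast cancer and non-malignant breast epithelial cell lines, Deep Dye Drop or Dye Drop imaging, nine half-log doses, GR normalized to time-zero plates and DMSO-only controls.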

Cell Line: PDXHCI002
- GR value ([1]; 0.0001 µM): 1.11 GR
- GR value ([1]; 0.0003162 µM): 1.1 GR
- GR value ([1]; 0.001 µM): 1.11 GR
- GR value ([1]; 0.003162 µM): 1.05 GR
- GR value ([1]; 0.01 µM): 0.744 GR
- GR value ([1]; 0.03162 µM): -0.331 GR
- GR value ([1]; 0.1 µM): -0.387 GR
- GR value ([1]; 0.3162 µM): -0.343 GR
- GR value ([1]; 1 µM): -0.365 GR
- GR value (Neratinib/HKI272; 0.0003162 µM): 1.05 GR
- GR value (Neratinib/HKI272; 0.001 µM): 1 GR
- GR value (Neratinib/HKI272; 0.003162 µM): 1.02 GR
- GR value (Neratinib/HKI272; 0.01 µM): 0.829 GR
- GR value (Neratinib/HKI272; 0.03162 µM): 0.637 GR
- GR value (Neratinib/HKI272; 0.1 µM): 0.54 GR
- GR value (Neratinib/HKI272; 0.3162 µM): 0.378 GR
- GR value (Neratinib/HKI272; 1 µM): 0.19 GR
- GR value (Neratinib/HKI272; 3.162 µM): -0.143 GR
- GR value (THZ531; 0.0001 µM): 1.1 GR
- GR value (THZ531; 0.0003162 µM): 1.06 GR
- GR value (THZ531; 0.001 µM): 0.966 GR
- GR value (THZ531; 0.003162 µM): 1.06 GR
- GR value (THZ531; 0.01 µM): 0.958 GR
- GR value (THZ531; 0.03162 µM): 0.782 GR
- GR value (THZ531; 0.1 µM): 0.0491 GR
- GR value (THZ531; 0.3162 µM): -0.122 GR
- GR value (THZ531; 1 µM): -0.198 GR
- GR value (BSJ-03-123; 0.001 µM): 1.08 GR
- GR value (BSJ-03-123; 0.003162 µM): 1.03 GR
- GR value (BSJ-03-123; 0.01 µM): 0.992 GR
- GR value (BSJ-03-123; 0.03162 µM): 0.883 GR
- GR value (BSJ-03-123; 0.1 µM): 0.812 GR
- GR value (BSJ-03-123; 0.3162 µM): 0.771 GR
- GR value (BSJ-03-123; 1 µM): 0.565 GR
- GR value (BSJ-03-123; 3.162 µM): 0.472 GR
- GR value (BSJ-03-123; 10 µM): -0.0835 GR
- GR value ([2]; 0.001 µM): 1.08 GR
- GR value ([2]; 0.003162 µM): 1 GR
- GR value ([2]; 0.01 µM): 0.785 GR
- GR value ([2]; 0.03162 µM): 0.527 GR
- GR value ([2]; 0.1 µM): 0.24 GR
- GR value ([2]; 0.3162 µM): 0.0121 GR
- GR value ([2]; 1 µM): -0.312 GR
- GR value ([2]; 3.162 µM): -0.593 GR
- GR value ([2]; 10 µM): -0.688 GR
- GR value (Flavopiridol [3]; 0.0001 µM): 1.02 GR
- GR value (Flavopiridol [3]; 0.0003162 µM): 0.997 GR
- GR value (Flavopiridol [3]; 0.001 µM): 0.973 GR
- GR value (Flavopiridol [3]; 0.003162 µM): 0.997 GR
- GR value (Flavopiridol [3]; 0.01 µM): 0.999 GR
- GR value (Flavopiridol [3]; 0.03162 µM): 0.817 GR
- GR value (Flavopiridol [3]; 0.1 µM): 0.63 GR
- GR value (Flavopiridol [3]; 0.3162 µM): -0.0265 GR
- GR value (Flavopiridol [3]; 1 µM): -0.156 GR
- GR value (THZ1; 0.0001 µM): 1.05 GR
- GR value (THZ1; 0.0003162 µM): 1.01 GR
- GR value (THZ1; 0.001 µM): 1.02 GR
- GR value (THZ1; 0.003162 µM): 0.984 GR
- GR value (THZ1; 0.01 µM): 0.541 GR
- GR value (THZ1; 0.03162 µM): -0.0195 GR
- GR value (THZ1; 0.1 µM): -0.163 GR
- GR value (THZ1; 0.3162 µM): -0.148 GR
- GR value (THZ1; 1 µM): -0.193 GR
- GR value (YKL-5-124; 0.001 µM): 0.288 GR
- GR value (YKL-5-124; 0.003162 µM): 0.306 GR
- GR value (YKL-5-124; 0.01 µM): 0.168 GR
- GR value (YKL-5-124; 0.03162 µM): 0.196 GR
- GR value (YKL-5-124; 0.1 µM): 0.158 GR
- GR value (YKL-5-124; 0.3162 µM): 0.0899 GR
- GR value (YKL-5-124; 1 µM): 0.0177 GR
- GR value (YKL-5-124; 3.162 µM): 0.0442 GR
- GR value (YKL-5-124; 10 µM): -0.129 GR
- GR value ([4]; 0.0003162 µM): 1.09 GR
- GR value ([4]; 0.001 µM): 1.09 GR
- GR value ([4]; 0.003162 µM): 1.02 GR
- GR value ([4]; 0.01 µM): 0.946 GR
- GR value ([4]; 0.03162 µM): 0.723 GR
- GR value ([4]; 0.1 µM): 0.552 GR
- GR value ([4]; 0.3162 µM): 0.427 GR
- GR value ([4]; 1 µM): 0.374 GR
- GR value ([4]; 3.162 µM): 0.274 GR
- GR value (LEE011/Ribociclib; 0.001 µM): 1.04 GR
- GR value (LEE011/Ribociclib; 0.003162 µM): 1 GR
- GR value (LEE011/Ribociclib; 0.01 µM): 0.903 GR
- GR value (LEE011/Ribociclib; 0.03162 µM): 0.925 GR
- GR value (LEE011/Ribociclib; 0.1 µM): 0.882 GR
- GR value (LEE011/Ribociclib; 0.3162 µM): 0.862 GR
- GR value (LEE011/Ribociclib; 1 µM): 0.828 GR
- GR value (LEE011/Ribociclib; 3.162 µM): 0.766 GR
- GR value (LEE011/Ribociclib; 10 µM): 0.51 GR
- GR50, 72 h [5]: 1.82 µM
- GR50, 72 h (Taselisib/GDC0032): 0.6 µM
- GR50, 72 h (ABT-737): 5.62 µM
- GR50, 72 h (Saracatinib/AZD0530): 0.0805 µM
- GR50, 72 h (Flavopiridol [6]): 0.114 µM
